Measured values: ChEMBL document CHEMBL1201862, “PubChem BioAssay data set” (2004)
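Step 1: Grow cells in 96-well plates. Step 2: Expose to compound for 48 hours at 5 concentrations. Step 3: Interpolate endpoints linearly; if unreached, use highest concentration. GI50: concentration for 50% inhibition of growth.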 The source made the active and inactive calls. Cut-off read from the data, not from the text of the source: active = GI50 up to about 1.1 µM and inactive = higher.

Assays:
Assay in all cases: DTP human tumour cell line panel, 48 h
[1] = system: 786-0
[2] = system: A498
[3] = system: A549
[4] = system: ACHN
[5] = system: BT-549
[6] = system: CAKI-1
[7] = system: CCRF-CEM
[8] = system: COLO 205
[9] = system: DU-145
[10] = system: EKVX
[11] = system: HCC 2998
[12] = system: HCT-116
[13] = system: HCT-15
[14] = system: HOP-62
[15] = system: HOP-92
[16] = system: HT-29
[17] = system: Hs-578T
[18] = system: IGROV-1
[19] = system: K562
[20] = system: KM12
[21] = system: LOX IMVI
[22] = system: M14
[23] = system: MCF7
[24] = system: MDA-MB-231
[25] = system: MDA-MB-435
[26] = system: MDA-N
[27] = system: MOLT-4
[28] = system: NCI-H226
[29] = system: NCI-H23
[30] = system: NCI-H460
[31] = system: NCI-H522
[32] = system: NCI/ADR-RES
[33] = system: OVCAR-3
[34] = system: OVCAR-4
[35] = system: OVCAR-5
[36] = system: OVCAR-8
[37] = system: PC-3
[38] = system: RXF 393
[39] = system: SF-268
[40] = system: SF-295
[41] = system: SF-539
[42] = system: SK-MEL-28
[43] = system: SK-MEL-2
[44] = system: SK-MEL-5
[45] = system: SN12C
[46] = system: SNB-75
[47] = system: SW-620
[48] = system: T47D
[49] = system: TK-10
[50] = system: U-251
[51] = system: UACC-257
[52] = system: UACC-62
[53] = system: UO-31
[54] = system: HL-60
[55] = system: Malme-3M
[56] = system: SK-OV-3
[57] = system: SNB-19

CCOC(=O)c1[nH]cc(C)c1-c1cccn1-c1ccc(Cl)cc1[N+](=O)[O-]
GI50 [1]: 18.2 µM (inactive) | GI50 [2]: 35.3 µM (inactive) | GI50 [3]: 23 µM (inactive) | GI50 [4]: 23.9 µM (inactive) | GI50 [5]: 27.2 µM (inactive) | GI50 [6]: 31.7 µM (inactive) | GI50 [7]: 25.6 µM (inactive) | GI50 [8]: 17.8 µM (inactive) | GI50 [9]: 35.1 µM (inactive) | GI50 [10]: 20.6 µM (inactive) | GI50 [11]: 19.4 µM (inactive) | GI50 [12]: 16.7 µM (inactive) | GI50 [13]: 32.1 µM | GI50 [14]: 18.6 µM (inactive) | GI50 [15]: 17.9 µM (inactive) | GI50 [16]: 16.2 µM (inactive) | GI50 [17]: 15.8 µM (inactive) | GI50 [18]: 14.7 µM (inactive) | GI50 [19]: 22.6 µM (inactive) | GI50 [20]: 20.1 µM (inactive) | GI50 [21]: 17.5 µM (inactive) | GI50 [22]: 14.9 µM (inactive) | GI50 [23]: 30.7 µM (inactive) | GI50 [24]: 8.24 µM (inactive) | GI50 [25]: 19.6 µM (inactive) | GI50 [26]: 22.2 µM (inactive) | GI50 [27]: 17.1 µM (inactive) | GI50 [28]: 16.7 µM (inactive) | GI50 [29]: 23.9 µM (inactive) | GI50 [30]: 18.8 µM (inactive) | GI50 [31]: 14 µM (inactive) | GI50 [32]: 17.5 µM (inactive) | GI50 [33]: 12 µM (inactive) | GI50 [34]: 32.5 µM (inactive) | GI50 [35]: 23.2 µM (inactive) | GI50 [36]: 20.8 µM (inactive) | GI50 [37]: 20.1 µM (inactive) | GI50 [38]: 13.7 µM (inactive) | GI50 [39]: 21.1 µM (inactive) | GI50 [40]: 28.2 µM (inactive) | GI50 [41]: 19.2 µM (inactive) | GI50 [42]: 22.8 µM (inactive) | GI50 [43]: 15.9 µM (inactive) | GI50 [44]: 14.9 µM (inactive) | GI50 [45]: 24.7 µM (inactive) | GI50 [46]: 19.1 µM (inactive) | GI50 [47]: 23.1 µM (inactive) | GI50 [48]: 31 µM (inactive) | GI50 [49]: 14.4 µM (inactive) | GI50 [50]: 15.1 µM (inactive) | GI50 [51]: 20.1 µM (inactive) | GI50 [52]: 18.2 µM (inactive) | GI50 [53]: 15.7 µM (inactive)

COc1cc(OC)c(OC)cc1/C=C/c1ccccn1
GI50 [1]: > 10 µM (inactive) | GI50 [2]: > 10 µM (inactive) | GI50 [3]: > 10 µM (inactive) | GI50 [4]: > 10 µM (inactive) | GI50 [5]: > 10 µM (inactive) | GI50 [6]: > 10 µM (inactive) | GI50 [7]: > 10 µM (inactive) | GI50 [8]: > 10 µM (inactive) | GI50 [9]: > 10 µM (inactive) | GI50 [10]: > 10 µM (inactive) | GI50 [11]: > 10 µM (inactive) | GI50 [12]: > 10 µM (inactive) | GI50 [13]: > 10 µM | GI50 [54]: > 10 µM (inactive) | GI50 [14]: > 10 µM (inactive) | GI50 [15]: > 10 µM (inactive) | GI50 [16]: > 10 µM (inactive) | GI50 [17]: > 10 µM (inactive) | GI50 [18]: > 10 µM (inactive) | GI50 [19]: > 10 µM (inactive) | GI50 [20]: > 10 µM (inactive) | GI50 [21]: > 10 µM (inactive) | GI50 [22]: > 10 µM (inactive) | GI50 [23]: > 10 µM (inactive) | GI50 [24]: > 10 µM (inactive) | GI50 [25]: > 10 µM (inactive) | GI50 [26]: > 10 µM (inactive) | GI50 [27]: > 10 µM (inactive) | GI50 [55]: > 10 µM (inactive) | GI50 [28]: > 10 µM (inactive) | GI50 [29]: > 10 µM (inactive) | GI50 [30]: > 10 µM (inactive) | GI50 [31]: > 10 µM (inactive) | GI50 [32]: > 10 µM (inactive) | GI50 [33]: > 10 µM (inactive) | GI50 [34]: > 10 µM (inactive) | GI50 [35]: > 10 µM (inactive) | GI50 [36]: > 10 µM (inactive) | GI50 [37]: > 10 µM (inactive) | GI50 [38]: > 10 µM (inactive) | GI50 [39]: > 10 µM (inactive) | GI50 [40]: > 10 µM (inactive) | GI50 [41]: > 10 µM (inactive) | GI50 [42]: > 10 µM (inactive) | GI50 [43]: > 10 µM (inactive) | GI50 [44]: > 10 µM (inactive) | GI50 [56]: > 10 µM (inactive) | GI50 [45]: > 10 µM (inactive) | GI50 [57]: > 10 µM (inactive) | GI50 [46]: > 10 µM (inactive) | GI50 [47]: > 10 µM (inactive) | GI50 [48]: > 10 µM (inactive) | GI50 [49]: > 10 µM (inactive) | GI50 [50]: > 10 µM (inactive) | GI50 [51]: > 10 µM (inactive) | GI50 [52]: > 10 µM (inactive) | GI50 [53]: > 10 µM (inactive)
